{
  "source": "patent US20220375548A1",
  "about": "“FRAGRANCE COMPOSITION TONALITY DETERMINATION METHOD, FRAGRANCE COMPOSITION DETERMINATION METHOD AND CORRESPONDING SYSTEMS” (FIRMENICH SA, priority 2019, published 2022)",
  "molecular_target": "T1, OR7A17 (Homo sapiens, UniProt O14581)",
  "T1 sequence (O14581 1-309)": "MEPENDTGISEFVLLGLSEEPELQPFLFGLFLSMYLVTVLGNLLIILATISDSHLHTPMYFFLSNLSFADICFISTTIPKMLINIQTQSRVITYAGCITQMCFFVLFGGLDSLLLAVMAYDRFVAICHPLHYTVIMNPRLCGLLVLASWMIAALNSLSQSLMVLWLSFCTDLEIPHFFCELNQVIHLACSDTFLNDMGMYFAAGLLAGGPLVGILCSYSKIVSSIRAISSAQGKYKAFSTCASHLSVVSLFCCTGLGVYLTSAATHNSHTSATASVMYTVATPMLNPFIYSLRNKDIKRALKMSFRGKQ",
  "assay": "odorant receptor activation (Example 3 in U.S. 62/911,096)",
  "assay_type": "cell-based",
  "details": "associated with blonde woody tonality",
  "text": "Non-limiting examples of an olfactory tonality include earthy, coconut, celery, hay etc. (see Example 1 in U.S. 62/911,096). For example, OR11A1 agonists all share a common earthy tonality even as they elicit an overall set of distinct tonalities (see Example 2 in U.S. 62/911,096). A volatile molecule may have greater than one tonality. For example, beta ionone has violet and blonde woody tonalities arising from the activation of OR5A1 and OR7A17, respectively (see Example 3 in U.S. 62/911,096).\nThe first relationship may be obtained by putting into contact a sample of volatile molecules with isolated ORs and by monitoring the activity of each said OR. The result of such an experiment may be stored inside a database cross referencing volatile molecule digital identifiers, representative of real volatile molecules, and the impact of said volatile molecule on the ORs monitored during the experiment.\nIndicators for monitoring the activity of olfactory receptors include, for example, a fluorescent calcium indicator dye, a calcium indicator protein (e.g. GCaMP, a genetically encoded calcium indicator), a fluorescent cAMP indicator, a cell mobilization assay, a cellular dynamic mass redistribution assay, a label-free cell based assay, a cAMP response element (CRE) mediated reporter protein, a biochemical cAMP HTRF assay, a beta-arrestin assay, or an electrophysiological recording. […]",
  "data": [
    {"smiles": "CC(=O)/C=C/C1=C(C)CCCC1(C)C", "note": "[beta ionone]", "values": [
      {"measurement": "activation of OR7A17", "value": "activation"}
    ]}
  ]
}
